What was measured:
Assay in all cases: relative viability (nuclei count vs DMSO), 5 days (fraction); higher = more cells survive
CUDC-101 = compound: C#Cc1cccc(Nc2ncnc3cc(OC)c(OCCCCCCC(=O)NO)cc23)c1 [CUDC-101]
Summary of the method: (§1)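 Viability was read as treated-well nuclei divided by vehicle-well nuclei, using the median across plates. Lung cancer cell lines in 1536-well plates were kept overnight at 37 °C, pinned with five √10-spaced library-drug doses, and after 5 days were Hoechst-stained, imaged at 4× and counted in MetaXpress. Plates passed only with control CV below 25% and at least one doubling.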

[1] = compound: C1=CC=C2C(=C1)N=C(S2)C(C#N)C3=NC(=NC=C3)NCCC4=CN=CC=C4
Summary of the method: as §1

NVP-TAE684 = compound: COc1cc(N2CCC(N3CCN(C)CC3)CC2)ccc1Nc1ncc(Cl)c(Nc2ccccc2S(=O)(=O)C(C)C)n1 [NVP-TAE684]
Summary of the method: as §1

Vandetanib = compound: COc1cc2/c(=N/c3ccc(Br)cc3F)nc[nH]c2cc1OCC1CCN(C)CC1 [Vandetanib]
Summary of the method: as §1

| Cell Line | relative viability (CUDC-101; 0.01 µM) | relative viability (CUDC-101; 0.03162 µM) | relative viability (CUDC-101; 0.1 µM) | relative viability (CUDC-101; 0.3162 µM) | relative viability (CUDC-101; 1 µM) | relative viability ([1]; 0.005 µM) | relative viability ([1]; 0.01581 µM) | relative viability ([1]; 0.05 µM) | relative viability ([1]; 0.1581 µM) | relative viability ([1]; 0.5 µM) | relative viability (NVP-TAE684; 0.2 µM) | relative viability (NVP-TAE684; 0.6325 µM) | relative viability (NVP-TAE684; 2 µM) | relative viability (Vandetanib; 0.02 µM) | relative viability (Vandetanib; 0.06325 µM) | relative viability (Vandetanib; 0.2 µM) | relative viability (Vandetanib; 0.6325 µM) | relative viability (Vandetanib; 2 µM) |
| --- | --- | --- | --- | --- | --- | --- | --- | --- | --- | --- | --- | --- | --- | --- | --- | --- | --- | --- |
| HCC-366 | 1.03 | 0.997 | 1.01 | 1.03 | 0.931 | 0.883 | 1.06 | 0.995 | 1.05 | 1.05 | 1.01 | 0.979 | 1.07 | 0.966 | 1.01 | 1.03 | 1.01 | 1.02 |
| NCI-H1437 | 0.994 | 0.985 | 1.01 | 1.06 | 0.981 | 0.901 | 0.947 | 0.988 | 1.1 | 0.966 |  | 0.957 | 0.758 | 0.937 | 0.968 | 0.955 | 1.03 | 0.981 |
| EPLC-272H | 1.04 | 0.9 | 0.838 | 0.79 | 0.418 | 0.915 | 0.882 | 0.958 | 1.11 | 0.895 | 0.9 | 0.667 | 0.688 | 0.941 | 0.834 | 0.975 | 0.941 | 0.923 |
| NCI-H1703 | 0.997 | 0.743 | 1.1 | 1.19 | 0.904 | 0.814 | 0.841 | 0.782 | 0.889 | 1.14 | 1.07 | 0.845 |  | 1.02 | 0.673 | 0.963 | 0.775 | 0.537 |
| HCC-15 | 0.969 | 0.989 | 1.01 | 1.11 | 0.897 | 0.96 | 0.989 | 1.03 | 1.12 | 0.919 | 0.913 | 0.973 | 0.808 | 1.01 | 0.919 | 0.982 | 1 | 1.03 |
| NCI-H2347 | 1.1 | 1.04 | 1.07 | 1.11 | 0.972 | 1.11 | 1.09 | 0.995 | 1.05 | 1.02 | 0.964 | 0.932 | 0.986 | 1.03 | 0.785 | 1.03 | 1.06 | 0.988 |
| COR-L 105 | 0.951 | 1.01 | 0.815 | 0.906 | 0.482 | 0.8 | 0.711 | 0.774 | 0.941 | 0.768 | 1.03 | 0.68 | 0.452 | 0.936 | 0.875 | 0.911 | 0.641 | 0.457 |
| NCI-H1650 | 0.895 | 0.764 | 0.818 | 0.799 | 0.587 | 0.89 | 0.816 | 0.922 | 1 | 0.774 | 0.782 | 0.745 | 0.45 | 0.997 | 0.736 | 0.843 | 0.855 | 0.705 |
| NCI-H838 | 0.988 | 0.922 | 0.992 | 1.02 | 0.871 | 0.902 | 0.954 | 0.968 | 1.1 | 0.953 |  | 0.792 | 0.545 | 0.938 | 0.902 | 0.973 | 0.94 | 0.957 |
| NCI-H2009 | 1 | 0.999 | 1.04 | 1.04 | 0.914 | 0.938 | 1 | 1.04 | 1.04 | 1.02 | 0.993 | 0.936 | 0.762 | 0.963 | 0.972 | 1.01 | 1.03 | 1.05 |
| SK-MES-1 | 0.968 | 0.984 | 0.989 | 0.971 | 0.683 | 1.05 | 1.02 | 0.949 | 1.09 | 0.882 | 1.02 |  | 0.714 | 1 | 0.896 | 1.03 | 0.912 | 0.827 |
| H3255 | 1 | 0.912 | 0.454 | 0.658 | 0.273 | 1.04 | 0.922 | 0.964 | 1.06 | 0.981 | 0.947 | 0.859 | 0.754 | 0.998 | 0.934 | 0.845 | 0.573 | 0.355 |
| HCC-78 | 1.01 | 0.918 | 0.954 | 0.809 | 0.416 | 1.08 | 0.92 | 1.07 | 1.07 | 0.996 | 0.824 | 0.658 | 0.495 | 1.02 | 0.841 | 0.958 | 0.974 | 0.853 |
| EMC-BAC-2 | 1.05 | 0.966 | 1.13 | 0.9 | 0.616 | 1.09 | 0.976 | 0.952 | 1.04 | 0.97 | 0.966 | 0.894 | 0.679 | 1.03 | 0.981 | 0.929 | 1.02 | 0.918 |
| Calu-6 | 1.03 | 0.998 | 0.979 | 0.993 | 0.857 | 0.999 | 0.983 | 0.978 | 1.12 | 0.912 | 0.937 | 0.992 | 0.758 | 0.958 | 0.946 | 1.02 | 0.988 | 0.95 |
| NCI-H2170 | 0.974 | 0.987 | 1.06 | 1.01 | 0.9 | 0.894 | 0.991 | 0.949 | 1 | 0.913 | 0.995 | 0.969 | 1.04 | 0.944 | 0.917 | 1 | 0.97 | 0.989 |
| NCI-H2228 | 1.02 | 1.23 | 0.946 | 1.09 | 1.07 | 0.839 | 1.12 | 0.962 | 1.17 | 0.956 | 0.632 | 0.36 | 0.29 | 1.04 | 0.983 | 0.836 | 1.12 | 0.809 |
| HCC-827 | 1.08 | 0.709 | 0.247 | 0.198 | 0.192 | 1.07 | 1.1 | 1.01 | 1.11 | 1.05 | 1.09 | 1.02 | 1.04 | 1.04 | 1.02 | 1.01 | 0.31 | 0.186 |
| ChaGo-K-1 | 0.923 | 0.965 | 1.02 | 1.06 | 0.787 | 0.984 | 0.929 | 0.99 | 1.05 | 0.939 | 0.98 | 0.878 | 0.843 | 1.01 | 1.01 | 1.01 | 0.998 | 0.984 |

Source: the supplement of paper PMC10307832
